Results on nine compounds are retold here after US8980830B2 (priority 2007, dated 2015).

One assay addresses GLP-1 Receptor (Homo sapiens, UniProt P43220). Briefly: Functional assay, cAMP induction (luciferase reporter, HEK293) at GLP-1 receptor. The assay is classed as cell-based. Conditions: for EC50: GLP-1 agonism EC50 (nM).
The target in another assay is Glucagon Receptor (Homo sapiens, UniProt P47871). Kind of assay: cAMP inhibition: antagonism of glucagon-induced cAMP at glucagon receptor. Set-up: expressed in transfected cells; host or cells: HEK293. It counts as cell-based. The settings on record: for IC50: Glucagon antagonism IC50 (nM, inhibit 0.2-0.8 nM glucagon).

Bridge positions count the residues as written; N and C are the ends. Square brackets hold non-standard residues; d marks the D form. Ends that are not written are not given here. Peptide text beside a SMILES is read from it. * marks the point of attachment. ξ: configuration not given here. X1 = CC(C)CCC[C@@H](C)[C@H]1CC[C@H]2[C@@H]3CC=C4C[C@@H](OC(=O)CCOCCOCCOCCOCCOCCOCCOCCOCCOCCOCCOCCOCCNC(=O)CSCCC(=O)*)CC[C@]4(C)[C@H]3CC[C@]12C; Abu(4-SO3H) = N[C@@H](CCS(=O)(=O)O)C(=O)O; Palmitoyl = CCCCCCCCCCCCCCCC(=O)*; PhLac = O=C(O)[C@@H](O)Cc1ccccc1; ξPhLac = O=C(O)C(O)Cc1ccccc1

Sequence of GLP-1 Receptor (P43220 24-463): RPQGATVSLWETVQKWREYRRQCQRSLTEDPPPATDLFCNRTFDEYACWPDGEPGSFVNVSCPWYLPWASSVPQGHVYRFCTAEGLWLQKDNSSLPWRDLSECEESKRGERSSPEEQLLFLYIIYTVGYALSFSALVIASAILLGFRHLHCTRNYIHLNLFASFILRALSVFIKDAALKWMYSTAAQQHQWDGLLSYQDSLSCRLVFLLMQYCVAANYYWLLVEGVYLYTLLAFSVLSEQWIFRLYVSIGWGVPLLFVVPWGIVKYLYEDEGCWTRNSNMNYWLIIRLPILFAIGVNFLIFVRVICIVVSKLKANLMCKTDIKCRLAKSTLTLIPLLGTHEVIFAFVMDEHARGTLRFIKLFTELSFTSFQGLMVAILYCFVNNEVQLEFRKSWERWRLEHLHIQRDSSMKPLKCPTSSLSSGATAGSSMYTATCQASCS
Sequence of Glucagon Receptor (P47871 26-477): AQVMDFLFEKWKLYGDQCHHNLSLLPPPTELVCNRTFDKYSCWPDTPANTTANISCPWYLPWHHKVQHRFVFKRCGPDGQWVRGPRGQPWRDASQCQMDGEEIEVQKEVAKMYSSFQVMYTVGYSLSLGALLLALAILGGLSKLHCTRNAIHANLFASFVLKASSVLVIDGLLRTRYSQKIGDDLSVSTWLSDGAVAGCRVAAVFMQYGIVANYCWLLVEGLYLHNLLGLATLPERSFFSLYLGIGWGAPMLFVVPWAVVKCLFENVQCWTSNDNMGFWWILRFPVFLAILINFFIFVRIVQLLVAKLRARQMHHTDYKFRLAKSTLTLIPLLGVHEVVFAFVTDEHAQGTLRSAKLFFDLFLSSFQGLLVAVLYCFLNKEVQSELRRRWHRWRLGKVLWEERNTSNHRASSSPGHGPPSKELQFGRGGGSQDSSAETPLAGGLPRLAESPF

For `CC[C@H](C)[C@H](NC(=O)[C@H](Cc1ccccc1)NC(=O)[C@H](CC(=O)O)NC(=O)[C@H](CCCCN)NC(=O)[C@H](C)NC(=O)[C@H](C)NC(=O)[C@H](CCC(N)=O)NC(=O)[C@@H]1CCC(=O)NCCCC[C@H](NC(=O)[C@H](CO)NC(=O)[C@H](Cc2ccc(O)cc2)NC(=O)[C@H](CC(=O)O)NC(=O)[C@H](CO)NC(=O)[C@@H](NC(=O)C(O)Cc2ccccc2)[C@@H](C)O)C(=O)N[C@@H](Cc2ccc(O)cc2)C(=O)N[C@@H](CC(C)C)C(=O)N[C@@H](CC(=O)O)C(=O)N1)C(=O)N[C@@H](C)C(=O)N[C@@H](Cc1c[nH]c2ccccc12)C(=O)N[C@@H](CC(C)C)C(=O)N[C@@H](CCSC)C(=O)N[C@@H](CC(=O)O)C(=O)N[C@H](C(N)=O)[C@@H](C)O` (stereo partly drawn) [[PLA6, K12E16(lactam), GLP(23-32)]G(6-29)] (H-[ξPhLac]TSDYSKYLDEQAAKDFIAWLMDT-NH2; lactam 7-11), the “GLP-1 agonism EC50(nM)” value at GLP-1 Receptor (Table 18) was “No agonism”.

For `CCCCCCCCCCCCCCCC(=O)O[C@@H](Cc1ccccc1)C(=O)N[C@H](C(=O)N[C@@H](CO)C(=O)N[C@@H](CC(=O)O)C(=O)N[C@@H](Cc1ccc(O)cc1)C(=O)N[C@@H](CO)C(=O)N[C@@H](CCCCN)C(=O)N[C@@H](Cc1ccc(O)cc1)C(=O)N[C@@H](CC(C)C)C(=O)N[C@@H](CC(=O)O)C(=O)N[C@H]1CCC(=O)NCCCC[C@@H](C(=O)N[C@@H](CC(=O)O)C(=O)N[C@@H](Cc2ccccc2)C(=O)N[C@H](C(=O)N[C@@H](CCC(N)=O)C(=O)N[C@@H](Cc2c[nH]c3ccccc23)C(=O)N[C@@H](CC(C)C)C(=O)N[C@@H](CCSC)C(=O)N[C@@H](CC(=O)O)C(=O)N[C@H](C(N)=O)[C@@H](C)O)C(C)C)NC(=O)[C@H](C)NC(=O)[C@H](CCCNC(=N)N)NC(=O)[C@H](CCCNC(=N)N)NC1=O)[C@@H](C)O` [[C16FA-O-PLA6, E16K20(lactam),D28]G(6-29)] (Palmitoyl-[PhLac]TSDYSKYLDERRAKDFVQWLMDT-NH2; lactam 11-15), the EC50 on GLP-1 Receptor (Table 22) is 45.7 ± 13.8 nM.

With `CSCC[C@H](NC(=O)[C@H](CC(C)C)NC(=O)[C@H](Cc1c[nH]c2ccccc12)NC(=O)[C@H](CCC(N)=O)NC(=O)[C@@H](NC(=O)[C@H](Cc1ccccc1)NC(=O)[C@H](CC(=O)O)NC(=O)[C@@H]1CCCCNC(=O)CC[C@H](NC(=O)[C@H](CC(=O)O)NC(=O)[C@H](CC(C)C)NC(=O)[C@H](Cc2ccc(O)cc2)NC(=O)[C@H](CCCCN)NC(=O)[C@H](CO)NC(=O)[C@H](CCCCNC(=O)CCSCC(=O)NCCOCCOCCOCCOCCOCCOCCOCCOCCOCCOCCOCCOCCC(=O)O[C@H]2CC[C@@]3(C)C(=CC[C@H]4[C@@H]5CC[C@H]([C@H](C)CCCC(C)C)[C@@]5(C)CC[C@@H]43)C2)NC(=O)[C@H](CC(=O)O)NC(=O)[C@H](CO)NC(=O)[C@@H](NC(=O)[C@@H](O)Cc2ccccc2)[C@@H](C)O)C(=O)N[C@@H](CCCNC(=N)N)C(=O)N[C@@H](CCCNC(=N)N)C(=O)N[C@@H](C)C(=O)N1)C(C)C)C(=O)N[C@@H](CC(=O)O)C(=O)N[C@H](C(N)=O)[C@@H](C)O` [K10-chol G(6-29), [PLA6, K10(COCH2CH2S-Chol), E16K20(lactam), D28]G(6-29) amide] (H-[PhLac]TSDK(X1)SKYLDERRAKDFVQWLMDT-NH2; lactam 11-15), the midpoint of the response at GLP-1 Receptor (Table 23, standard deviation in ( )), the EC50, lay at 35.3 nM.

The compound `CSCC[C@H](NC(=O)[C@H](CC(C)C)NC(=O)[C@H](Cc1c[nH]c2ccccc12)NC(=O)[C@H](CCC(N)=O)NC(=O)[C@@H](NC(=O)[C@H](Cc1ccccc1)NC(=O)[C@H](CC(=O)O)NC(=O)[C@@H]1CCCCNC(=O)CC[C@H](NC(=O)[C@H](CC(=O)O)NC(=O)[C@H](CC(C)C)NC(=O)[C@H](Cc2ccc(O)cc2)NC(=O)[C@H](CCCCN)NC(=O)[C@H](CO)NC(=O)[C@H](Cc2ccc(O)cc2)NC(=O)[C@H](CCC(=O)O)NC(=O)[C@H](CO)NC(=O)[C@@H](NC(=O)[C@H](Cc2ccccc2)NC(=O)[C@@H](NC(=O)CNC(=O)[C@H](CCC(=O)O)NC(=O)[C@H](C)N)[C@@H](C)O)[C@@H](C)O)C(=O)N[C@@H](CCCNC(=N)N)C(=O)N[C@@H](CCCNC(=N)N)C(=O)N[C@@H](C)C(=O)N1)C(C)C)C(=O)N[C@@H](CC(=O)O)C(=O)N[C@H](C(N)=O)[C@@H](C)O` [[A2E3, E16K20(Lactam),D28]G(2 ~ 29)] returned a half-inhibitory concentration (IC50) on Glucagon Receptor (Table 18) of 63.2 ± 2.3 nM.

The compound `CSCC[C@@H]1NC(=O)[C@H](CC(C)C)NC(=O)[C@H](Cc2c[nH]c3ccccc23)NC(=O)[C@@H](NC(=O)[C@@H](NC(=O)[C@H](Cc2ccccc2)NC(=O)[C@H](CC(=O)O)NC(=O)[C@H](CCC(N)=O)NC(=O)[C@H](C)NC(=O)[C@H](CCCNC(=N)N)NC(=O)[C@H](CCCNC(=N)N)NC(=O)[C@H](CCC(=O)O)NC(=O)[C@H](CC(=O)O)NC(=O)[C@H](CC(C)C)NC(=O)[C@H](Cc2ccc(O)cc2)NC(=O)[C@H](CCCCN)NC(=O)[C@H](CO)NC(=O)[C@H](Cc2ccc(O)cc2)NC(=O)[C@H](CC(=O)O)NC(=O)[C@H](CO)NC(=O)[C@@H](NC(=O)[C@@H](O)Cc2ccccc2)[C@@H](C)O)C(C)C)CCC(=O)NCCCC[C@@H](C(=O)N[C@H](C(N)=O)[C@@H](C)O)NC1=O` (H-[PhLac]TSDYSKYLDERRAQDFVEWLMKT-NH2; lactam 19-23) registered a 50% effective concentration (EC50) on GLP-1 Receptor (Table 17) of 289 ± 149 nM.

As to “[PLA^6, C^8(1.2kDaPEG), E^9]Glucagon(aa6-29)-NH2 ([PhLac]TC(PEG 1.2 kDa)EYSKYLDSRRAQDFVQWLMNT-NH2)”, in the assay with Glucagon Receptor (Table 12), the “IC50 (nM) (cAMP, inhibit 0.2 mM Glucagon)” value is “no antagonism”.

Turning to “FTSEYSKYLDERRAQDFVQWLMNTGPSSGAPPPS-NH2 [E9, K12, E16]”, on Glucagon Receptor (Table 16, combined results of three assays), the IC50 came to 762 ± 127 nM.

As for `CC(C)C[C@H](NC(=O)[C@H](Cc1ccc(O)cc1)NC(=O)[C@H](CCCCN)NC(=O)[C@H](CO)NC(=O)[C@H](Cc1ccc(O)cc1)NC(=O)[C@H](CCS(=O)(=O)O)NC(=O)[C@H](CO)NC(=O)[C@@H](NC(=O)[C@H](Cc1ccccc1)NC(=O)[C@@H](NC(=O)[C@H](CC(C)C)NC(=O)[C@H](CCC(N)=O)NC(=O)[C@@H](N)CO)[C@@H](C)O)[C@@H](C)O)C(=O)N[C@@H](CC(=O)O)C(=O)N[C@@H](CO)C(=O)N[C@@H](CCCNC(=N)N)C(=O)N[C@@H](CCCNC(=N)N)C(=O)N[C@@H](C)C(=O)N[C@@H](CCC(N)=O)C(=O)N[C@@H](CC(=O)O)C(=O)N[C@@H](Cc1ccccc1)C(=O)N[C@H](C(=O)N[C@@H](CCC(N)=O)C(=O)N[C@@H](Cc1ccccc1)C(=O)N[C@@H](CC(C)C)C(=O)N[C@@H](CC(C)C)C(=O)N[C@@H](CC(N)=O)C(=O)N[C@H](C(N)=O)[C@@H](C)O)C(C)C` [[desHis^1, Leu^4, hCys^9(SO3−), Phe^25, Leu^27] Glucagon-NH2] (H-SQLTFTS[Abu(4-SO3H)]YSKYLDSRRAQDFVQFLLNT-NH2; N-terminus assumed), the “glucagon antagonism, in words” value on Glucagon Receptor was “some level of antagonism”.

Take “FTSDYSKYLDSRRAQDFVQWLMNT-NH2 [Glucagon(aa6-29)-NH2]”: the “cAMP pA2” value at Glucagon Receptor (Table 9) is 6.94 ± 0.63.
